For the experiment, the target named is T1, ROR gamma ligand-binding domain (LBD) (hRORg) (Homo sapiens, UniProt P51449).
T1 construct: expressed in transfected cells; host or cells: HG5LN (HeLa line with GAL4-responsive luciferase reporter)
T1 sequence (P51449 269-508 limits assumed): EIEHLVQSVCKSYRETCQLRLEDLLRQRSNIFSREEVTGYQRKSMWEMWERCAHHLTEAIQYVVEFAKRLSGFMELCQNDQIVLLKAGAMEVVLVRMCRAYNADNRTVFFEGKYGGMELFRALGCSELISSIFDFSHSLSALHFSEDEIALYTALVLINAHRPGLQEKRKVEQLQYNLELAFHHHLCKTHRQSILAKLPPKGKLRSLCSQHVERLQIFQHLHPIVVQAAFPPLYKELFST
Put plainly: GAL4-RORγ transactivation (luciferase reporter, HG5LN HeLa line). It is filed as cell-based. The following applies: HG5LN HeLa line with GAL4 DBD fused to ROR gamma LBD, 18 hours incubation. An excerpt: GAL4—RORγ Transactivation
The RORγ transactivation model was developed from the line HG5LN, which is a HeLa line that stably expresses a luciferase reporter gene controlled by a pentamer of the GAL4 recognition domain of yeast and of a β-globin promoter. The HG5LN line was stably transfected by the DNA-binding domain (DBD) of GAL4 fused to the ROR gamma ligand-binding domain (LBD). Molecules that inhibit the ROR gamma constitutive activity reduce the luciferase expression, thus leading to a reduction in the emitted luminescence.
The cells are seeded in 384-well plates (5000 cells in 45 μL/well of culture medium containing 10% fetal calf serum) and incubated for 4 hours at 37° C., 5% CO2. 5 μL of the test molecules (compounds described in the tables described above) are then added to each well and the plates are incubated for 18 hours at a temperature of 37° C. under 5% of CO2. 20 μL of luciferase substrate (Promega) are added to each well and the luminescence emitted is read by a microplate reader.
The luminescence units (“RLU”) are normalized by positive controls (“POS” containing a saturated concentration of N-(2,2,2-trifluoroethyl)-N-[4-[2,2,2-trifluoro-1-hydroxy-1-(trifluoromethyl)ethyl]phenyl])benzenesulfonamide and negative controls (“NEG” containing DMSO): % inhibition=((RLU-NEG)*100)/(POS-NEG). The IC50 values are calculated from a 4-parameter logistic model using the XLFit software (IDBS).
`CCc1ccc(N(CC(C)C)S(=O)(=O)c2ccc3c(c2)C(O)CCN3CC2CCN(S(C)(=O)=O)CC2)cc1` (centres unmarked) [Compound 59, 4-hydroxy-1-(1-methanesulfonylpiperidin-4-ylmethyl)-1,2,3,4-tetrahydroquinoline-6-sulfonic acid (4-ethylphenyl)isobutylamide]: the IC50 was above 1 µM.

As to `CCc1ccc(N(CC(C)C)S(=O)(=O)c2ccc3c(c2)C(O)CCN3CC2CC3(COC3)C2)cc1` (centres unmarked) [Compound 44, 4-hydroxy-1-(2-oxaspiro[3.3]hept-6-ylmethyl)-1,2,3,4-tetrahydroquinoline-6-sulfonic acid (4-ethylphenyl)isobutylamide], the IC50 is 0.1 to 1 µM.

`CCc1ccc(N(CC(C)C)S(=O)(=O)c2ccc3c(c2)C(O)CCN3CC2CCN(C(=O)OC(C)(C)C)CC2)cc1` (centres unmarked) [Compound 12, tert-butyl ester of 4-{6-[(4-ethylphenyl)isobutylsulfamoyl]-4-hydroxy-3,4-dihydro-2H-quinolin-1-ylmethyl}piperidine-1-carboxylic acid] came in with a half-maximal inhibitory concentration (IC50) above 1 µM.

`CCc1ccc(N(CC(C)C)S(=O)(=O)c2ccc3c(c2)C(O)CCN3Cc2nonc2C)cc1` (centres unmarked) [Compound 32, 4-hydroxy-1-(4-methylfurazan-3-ylmethyl)-1,2,3,4-tetrahydroquinoline-6-sulfonic acid (4-ethylphenyl)isobutylamide] had an IC50 of 0.1 to 1 µM.

As for `CCc1ccc(N(CC(C)C)S(=O)(=O)c2ccc3c(c2)C(=O)CCN3CC2CCNCC2)cc1` [Compound 54, 4-oxo-1-piperidin-4-ylmethyl-1,2,3,4-tetrahydroquinoline-6-sulfonic acid (4-ethylphenyl)isobutylamide], the IC50 was above 1 µM.

For `CCc1ccc(N(CC(C)C)S(=O)(=O)c2ccc3c(c2)C(O)CCN3C2CCS(=O)(=O)C2)cc1` (centres unmarked) [Compound 28, 1-(1,1-dioxotetrahydro-1λ^6-thiophen-3-yl)-4-hydroxy-1,2,3,4-tetrahydroquinoline-6-sulfonic acid (4-ethylphenyl)isobutylamide], the IC50 was 0.1 to 1 µM.

Consider `CCc1ccc(N(CC(C)C)S(=O)(=O)c2ccc3c(c2)C(O)CCN3CC2(O)CCOCC2)cc1` (centres unmarked) [Compound 16, 4-hydroxy-1-(4-hydroxytetrahydropyran-4-ylmethyl)-1,2,3,4-tetrahydroquinoline-6-sulfonic acid (4-ethylphenyl)isobutylamide], for which the half-maximal inhibitory concentration (IC50) was above 1 µM.

For the molecule `CCc1ccc(N(CC(C)C)S(=O)(=O)c2ccc3c(c2)C(=O)CCN3CC2CCC(=O)N2)cc1` (centres unmarked) [Compound 3, 4-oxo-1-(5-oxopyrrolidin-2-ylmethyl)-1,2,3,4-tetrahydroquinoline-6-sulfonic acid (4-ethylphenyl)isobutylamide], the concentration for half-maximal inhibition (IC50) is above 1 µM.

Take `CCc1ccc(N(CC(C)C)S(=O)(=O)c2ccc3c(c2)C(O)CCN3CC2CCN(C(=O)OC)C2)cc1` (centres unmarked) [Compound 50, methyl ester of 3-{6-[(4-ethylphenyl)isobutylsulfamoyl]-4-hydroxy-3,4-dihydro-2H-quinolin-1-ylmethyl}pyrrolidine-1-carboxylic acid]: the half-inhibitory concentration (IC50) is above 1 µM.

`CCc1ccc(N(CC(C)C)S(=O)(=O)c2ccc3c(c2)C(O)CCN3Cc2c(C)noc2C)cc1` (centres unmarked) [Compound 31, 1-(3,5-dimethylisoxazol-4-ylmethyl)-4-hydroxy-1,2,3,4-tetrahydroquinoline-6-sulfonic acid (4-ethylphenyl)isobutylamide]: the IC50 was 0.1 to 1 µM.

`CCc1ccc(N(CC(C)C)S(=O)(=O)c2ccc3c(c2)C(O)CCN3OC2CCOCC2)cc1` (centres unmarked) [Compound 36, 4-hydroxy-1-(tetrahydropyran-4-yloxy)-1,2,3,4-tetrahydroquinoline-6-sulfonic acid (4-ethylphenyl)isobutylamide] yielded an IC50 of 0.1 to 1 µM.

`CCc1ccc(N(CC(C)C)S(=O)(=O)c2ccc3c(c2)C(=O)CCN3C2CCN(C(C)=O)CC2)cc1` [Compound 60, 1-(1-acetylpiperidin-4-yl)-4-oxo-1,2,3,4-tetrahydroquinoline-6-sulfonic acid (4-ethylphenyl)isobutylamide] showed a half-inhibitory concentration (IC50) above 1 µM.

`CCc1ccc(N(CC(C)C)S(=O)(=O)c2ccc3c(c2)C(O)CCN3Cc2cnoc2C)cc1` (centres unmarked) [Compound 30, 4-hydroxy-1-(5-methylisoxazol-4-ylmethyl)-1,2,3,4-tetrahydroquinoline-6-sulfonic acid (4-ethylphenyl)isobutylamide] registered an IC50 of 0.1 to 1 µM.

`CCc1ccc(N(CC(C)C)S(=O)(=O)c2ccc3c(c2)C(O)CCN3CC2CCC(=O)NC2)cc1` (centres unmarked) [Compound 24, 4-hydroxy-1-(6-oxopiperidin-3-ylmethyl)-1,2,3,4-tetrahydroquinoline-6-sulfonic acid (4-ethylphenyl)isobutylamide]: the 50% inhibitory concentration (IC50) fell in the range of 0.1 to 1 µM.

Molecule `CCc1ccc(N(CC(C)C)S(=O)(=O)c2ccc3c(c2)C(=O)CCN3CC2CCN(C(=O)OC(C)(C)C)CC2)cc1` [Compound 5, tert-butyl ester of 4-{6-[(4-ethylphenyl)isobutylsulfamoyl]-4-oxo-3,4-dihydro-2H-quinolin-1-ylmethyl}piperidine-1-carboxylic acid] registered an IC50 above 1 µM.

Molecule `CCc1ccc(N(CC(C)C)S(=O)(=O)c2ccc3c(c2)C(=O)CCN3CC2CCS(=O)(=O)CC2)cc1` [Compound 7, 1-(1,1-dioxohexahydro-1λ^6-thiopyran-4-ylmethyl)-4-oxo-1,2,3,4-tetrahydroquinoline-6-sulfonic acid (4-ethylphenyl)isobutylamide] had an IC50 above 1 µM.

With `CCc1ccc(N(CC(C)C)S(=O)(=O)c2ccc3c(c2)C(O)CCN3Cc2ccc(C(=O)NO)cc2)cc1` (centres unmarked) [Compound 47, 4-{6-[(4-ethylphenyl)isobutylsulfamoyl]-4-hydroxy-3,4-dihydro-2H-quinolin-1-ylmethyl}-N-hydroxybenzamide], the half-inhibitory concentration (IC50) is above 1 µM.

In turn, `CCc1ccc(N(CC(C)C)S(=O)(=O)c2ccc3c(c2)C(O)CCN3C2CCN(S(C)(=O)=O)CC2)cc1` (centres unmarked) [Compound 64, 4-hydroxy-1-(1-methanesulfonylpiperidin-4-yl)-1,2,3,4-tetrahydroquinoline-6-sulfonic acid (4-ethylphenyl)isobutylamide] yielded an IC50 above 1 µM.

The molecule `CCc1ccc(N(CC(C)C)S(=O)(=O)c2ccc3c(c2)C(O)CCN3CC2CNC(=O)O2)cc1` (centres unmarked) [Compound 23, 4-hydroxy-1-(2-oxooxazolidin-5-ylmethyl)-1,2,3,4-tetrahydroquinoline-6-sulfonic acid (4-ethylphenyl)isobutylamide] had a 50% inhibitory concentration (IC50) of 0.1 to 1 µM.

For `CCc1ccc(N(CC(C)C)S(=O)(=O)c2ccc3c(c2)C(O)CCN3CC2CCNCC2)cc1` (centres unmarked) [Compound 56, 4-hydroxy-1-piperidin-4-ylmethyl-1,2,3,4-tetrahydroquinoline-6-sulfonic acid (4-ethylphenyl)isobutylamide], the IC50 is above 1 µM.

In turn, `CCc1ccc(N(CC(C)C)S(=O)(=O)c2ccc3c(c2)C(O)CCN3Cc2ccncn2)cc1` (centres unmarked) [Compound 21, 4-hydroxy-1-pyrimidin-4-ylmethyl-1,2,3,4-tetrahydroquinoline-6-sulfonic acid (4-ethylphenyl)isobutylamide] came in with an IC50 below 0.1 µM.

`COc1ccc(N(C(C)C)S(=O)(=O)c2ccc3c(c2)C(O)CCN3Cc2cn[nH]c2)c(C)c1` (centres unmarked) [Compound 65, 4-hydroxy-1-(1H-pyrazol-4-ylmethyl)-1,2,3,4-tetrahydroquinoline-6-sulfonic acid isopropyl(4-methoxy-2-methylphenyl)amide] yielded an IC50 above 1 µM.

`CCc1ccc(N(CC(C)C)S(=O)(=O)c2ccc3c(c2)C(O)CCN3[C@H](C)C2CCOCC2)cc1` (stereo partly drawn) [Compound 38, 4-hydroxy-1-[(R)-1-(tetrahydropyran-4-yl)ethyl]-1,2,3,4-tetrahydroquinoline-6-sulfonic acid (4-ethylphenyl)isobutylamide] came in with an IC50 above 1 µM.

In turn, `CCc1ccc(N(CC(C)C)S(=O)(=O)c2ccc3c(c2)C(O)CCN3[C@@H](C)C2CCOCC2)cc1` (stereo partly drawn) [Compound 41, 4-hydroxy-1-[(S)-1-(tetrahydropyran-4-yl)ethyl]-1,2,3,4-tetrahydroquinoline-6-sulfonic acid (4-ethylphenyl)isobutylamide] showed an IC50 of 0.1 to 1 µM.

With `CCc1ccc(N(CC(C)C)S(=O)(=O)c2ccc3c(c2)C(=O)CCN3Cc2ccc(C(=O)NO)cc2)cc1` [Compound 8, 4-{6-[(4-ethylphenyl)isobutylsulfamoyl]-4-oxo-3,4-dihydro-2H-quinolin-1-ylmethyl}-N-hydroxybenzamide], the 50% inhibitory concentration (IC50) was above 1 µM.

`CCc1ccc(N(CC(C)C)S(=O)(=O)c2ccc3c(c2)C(O)CCN3C2CCN(C(=O)OC(C)(C)C)CC2)cc1` (centres unmarked) [Compound 13, tert-butyl ester of 4-{6-[(4-ethylphenyl)isobutylsulfamoyl]-4-hydroxy-3,4-dihydro-2H-quinolin-1-yl}piperidine-1-carboxylic acid] came in with an IC50 above 1 µM.
